{"source": "patent US20020122813A1", "about": "“Insect attractants” (priority 1999, published 2002)", "key": {"[1]": {"system": "Aedes aegypti", "test": "wind tunnel landing bioassay on heated glass cylinders with filter papers", "type": "in vivo", "conditions": "in water at 1 μg/μl; FIG. 4", "description": "Trials used either Aedes aegypti or the Tanzanian KWA strain of Anopheles gambiae s.s., both obtained from the London School of Hygiene and Tropical Medicine. The rearing and bioassay rooms were maintained at 27° C. ±2° and 70% RH ±10%. The rearing room was kept on a 12/12 light dark cycle of 170 Wm^−2 and 0.3 Wm^−2 respectively with a 30 minute dusk period of 0.5 Wm^−2 at the day night interface.\nTo circumvent this problem we concentrated on investigating the landing responses of An gambiae s.s. on heated glass cylinders treated with sweat and sweat extracts. The bioassay was conducted in a wind tunnel^9 that was connected to 2 identical flight chambers, stainless steel frames 1.0 m long, covered in thin gauge plastic tubing and sealed at both ends with mosquito netting, FIG. 1. Twenty, 5-8 day old An gambiae s.s. females were introduced into each flight chamber. The mosquitoes were activated with 2 pulses of carbon dioxide, diluted with filtered air to give pulses of 0.1% above background. Activated mosquitoes flew upwind and approached heated (34° C., human skin temperature) glass cylinders to which strips of filter paper were attached. The number of mosquitoes landing per minute on each filter paper was recorded for 10 min by infra-red sensitive video cameras situated downwind of the flight chambers. All bioassays began on the 3rd hour of the night period (21.00 h). […]"}, "[2]": {"system": "Ae aegypti", "conditions": "structural activity relationship study of lactic acid analogues; cited from earlier work"}, "[3]": {"system": "Anopheles gambiae s.s.", "test": "wind tunnel landing bioassay on heated glass cylinders with filter papers", "type": "in vivo", "conditions": "for landing response compared to water control, comparative bioassay of α-oxo-carboxylic acids: FIG. 5, 6 replicates", "description": "Trials used either Aedes aegypti or the Tanzanian KWA strain of Anopheles gambiae s.s., both obtained from the London School of Hygiene and Tropical Medicine. The rearing and bioassay rooms were maintained at 27° C. ±2° and 70% RH ±10%. […] To circumvent this problem we concentrated on investigating the landing responses of An gambiae s.s. on heated glass cylinders treated with sweat and sweat extracts. The bioassay was conducted in a wind tunnel^9 that was connected to 2 identical flight chambers, stainless steel frames 1.0 m long, covered in thin gauge plastic tubing and sealed at both ends with mosquito netting, FIG. 1. Twenty, 5-8 day old An gambiae s.s. females were introduced into each flight chamber. The mosquitoes were activated with 2 pulses of carbon dioxide, diluted with filtered air to give pulses of 0.1% above background. Activated mosquitoes flew upwind and approached heated (34° C., human skin temperature) glass cylinders to which strips of filter paper were attached. […] All bioassays began on the 3rd hour of the night period (21.00 h). To collect sweat, strips of filter paper were strapped around the leg, just above the ankle, of a human volunteer for 24 h. A strip of sweat impregnated filter paper was placed onto one cylinder and a filter paper dampened with […] of distilled water was placed onto the second, the control, cylinder The bioassay was repeated 6 times, the position of the sweat and the control filter papers alternated between bioassays. […] The response to the sweat declined during the bioassay, FIG. 3A, and is probably due to the evaporation of behaviourally active volatiles."}}, "note": "“Also recorded” adds a separate entry of the source."}
{"smiles": "CCCC(=O)C(=O)O", "note": "[2-oxopentanoic acid]", "values": [{"measurement": "landing response (significance)", "setting": "[1]", "result": "elicited significant levels of landings; also recorded: did elicit significant levels of landings"}, {"measurement": "attractiveness relative to lactic acid", "setting": "[2]", "result": "as attractive as lactic acid"}, {"measurement": "landing response compared to water control, comparative bioassay of α-oxo-carboxylic acids", "setting": "[3]", "result": "greatest response"}, {"measurement": "time of peak of landing response", "setting": "[3]; during 10 min bioassay", "result": 4, "unit": "min"}, {"measurement": "total number of landings (TNL)", "setting": "[3]; in water at 1 μg/μl vs water control", "result": 352}, {"measurement": "landing response compared to control (significance)", "setting": "[3]; in water at 1 μg/μl vs water control, P<0.001", "result": "did elicit significant levels of landings"}]}
{"smiles": "CC(C)C(=O)C(=O)O", "note": "[3-methyl,2-oxobutanoic acid]", "values": [{"measurement": "landing response compared to water control, comparative bioassay of α-oxo-carboxylic acids", "setting": "[3]", "result": "did elicit significant levels of landings"}]}
{"smiles": "CCO", "note": "[ethanol]", "values": [{"measurement": "total number of landings (TNL)", "setting": "[3]; ethanol vs blank control", "result": 141}, {"measurement": "landing response compared to control (significance)", "setting": "[3]; ethanol vs blank control, P>0.05", "result": "not a significant difference"}]}
{"smiles": "CC(O)C(=O)O", "note": "(stereo not drawn) [lactic acid, L(+) lactic acid (2-hydroxypropanoic), reference compound]", "values": [{"measurement": "total number of landings (TNL)", "setting": "[3]; in ethanol at 0.2 μg/μl vs ethanol control", "result": 167}, {"measurement": "landing response compared to control (significance)", "setting": "[3]; in ethanol at 0.2 μg/μl vs ethanol control, P>0.05", "result": "did not elicit significant levels of landings"}]}
{"smiles": "CCC(=O)C(=O)O", "note": "[oxobutanoic acid]", "values": [{"measurement": "landing response compared to water control, comparative bioassay of α-oxo-carboxylic acids", "setting": "[3]", "result": "did elicit significant levels of landings"}]}
{"smiles": "CC(=O)C(=O)O", "note": "[oxopropanoic acid]", "values": [{"measurement": "landing response compared to water control, comparative bioassay of α-oxo-carboxylic acids", "setting": "[3]", "result": "did elicit significant levels of landings"}]}
